In ChEMBL document CHEMBL1201862, “PubChem BioAssay data set” (2004):
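Cultured in 96-well plates, cells were exposed to test compound for 48 hours across five concentrations. Abbreviation: GI50, concentration required for 50% inhibition of growth.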 Calls of active or inactive are those of the source. Cut-off read from the data, not from the text of the source: active = GI50 up to about 1.1 µM and inactive = higher.

What was measured:
Experiment in all cases: DTP human tumour cell line panel, 48 h
[1] = tested on: KM12
[2] = tested on: UACC-62
[3] = tested on: HOP-92
[4] = tested on: PC-3
[5] = tested on: MOLT-4
[6] = tested on: SK-MEL-28
[7] = tested on: Hs-578T
[8] = tested on: M14
[9] = tested on: SR
[10] = tested on: MDA-MB-231
[11] = tested on: NCI-H460
[12] = tested on: MDA-MB-435
[13] = tested on: NCI/ADR-RES
[14] = tested on: T47D
[15] = tested on: A498
[16] = tested on: DU-145
[17] = tested on: MCF7
[18] = tested on: MDA-N
[19] = tested on: BT-549

Compound	GI50 [1]	GI50 [2]	GI50 [3]	GI50 [4]	GI50 [5]	GI50 [6]	GI50 [7]	GI50 [8]	GI50 [9]	GI50 [10]	GI50 [11]	GI50 [12]	GI50 [13]	GI50 [14]	GI50 [15]	GI50 [16]	GI50 [17]	GI50 [18]	GI50 [19]
O=C(CCc1ccc(O)c(O)c1)OCCc1ccccc1	> 100 µM (inactive)	45.4 µM (inactive)	> 21.2 µM (inactive)	> 100 µM (inactive)	15.1 µM (inactive)	> 100 µM (inactive)	> 100 µM (inactive)	67.3 µM (inactive)	17.6 µM (inactive)	67.6 µM (inactive)	> 100 µM (inactive)	20.8 µM (inactive)	> 100 µM (inactive)	> 96.4 µM (inactive)	> 100 µM (inactive)	> 100 µM (inactive)	> 62.1 µM (inactive)	15.4 µM (inactive)	> 100 µM (inactive)
CCOC(=O)c1nc2ccc(C(F)(F)F)cc2nc1NCc1ccc(Cl)c(Cl)c1	28.7 µM (inactive)	30 µM (inactive)	14.6 µM (inactive)	22.8 µM (inactive)	> 100 µM (inactive)	–	20.8 µM (inactive)	36.9 µM (inactive)	37.9 µM (inactive)	30.2 µM (inactive)	45.6 µM (inactive)	23.6 µM (inactive)	47.1 µM (inactive)	44.5 µM (inactive)	30.2 µM (inactive)	–	30.4 µM (inactive)	57.4 µM (inactive)	37 µM (inactive)
O=c1oc2ccccc2cc1-c1cn2cc(Cl)ccc2n1	0.296 µM (active)	0.245 µM (active)	5.45 µM (inactive)	1.93 µM (inactive)	0.422 µM (active)	2.08 µM (inactive)	1.23 µM (inactive)	0.544 µM (active)	0.0687 µM (active)	3.01 µM (inactive)	0.488 µM (active)	0.0434 µM (active)	0.345 µM (active)	11 µM (inactive)	–	5.57 µM (inactive)	0.435 µM (active)	0.0881 µM (active)	2.33 µM (inactive)
O=C1CSC(c2ccc(Cl)cc2Cl)N1c1ccc(Oc2ccc(Cl)cc2)c(Cl)c1 (configuration not stated)	20.2 µM (inactive)	21.9 µM (inactive)	21.8 µM (inactive)	27.8 µM (inactive)	24.3 µM (inactive)	39.4 µM (inactive)	14.7 µM (inactive)	23.9 µM (inactive)	16.3 µM (inactive)	19.4 µM (inactive)	27.4 µM (inactive)	12.6 µM (inactive)	21.6 µM (inactive)	23.4 µM (inactive)	–	32.1 µM (inactive)	33.2 µM (inactive)	21.7 µM (inactive)	22.2 µM (inactive)
CNNC(=NS(=O)(=O)c1cc(C#N)c(NNC)cc1S)NNC	> 10 µM (inactive)	–	> 10 µM (inactive)	> 10 µM (inactive)	> 10 µM (inactive)	> 10 µM (inactive)	> 10 µM (inactive)	> 10 µM (inactive)	> 10 µM (inactive)	–	> 10 µM (inactive)	–	> 10 µM (inactive)	> 10 µM (inactive)	> 10 µM (inactive)	> 10 µM (inactive)	> 10 µM (inactive)	> 10 µM (inactive)	> 10 µM (inactive)
CCOC(=O)c1ccc(C(=O)C(C(C)=O)C(=O)OC(C)(C)C)[nH]1 (configuration not stated)	> 100 µM (inactive)	> 100 µM (inactive)	–	> 100 µM (inactive)	> 100 µM (inactive)	> 100 µM (inactive)	> 100 µM (inactive)	> 100 µM (inactive)	> 100 µM (inactive)	> 100 µM (inactive)	> 100 µM (inactive)	> 100 µM (inactive)	> 100 µM (inactive)	> 100 µM (inactive)	> 100 µM (inactive)	> 100 µM (inactive)	> 100 µM (inactive)	> 100 µM (inactive)	> 100 µM (inactive)
O=C1c2sc(-c3ccc(F)cc3)cc2-n2cccc21	26.4 µM (inactive)	28.3 µM (inactive)	–	37.2 µM (inactive)	21.4 µM (inactive)	69.8 µM (inactive)	19.7 µM (inactive)	38.1 µM (inactive)	17.8 µM (inactive)	22.2 µM (inactive)	24.9 µM (inactive)	31.4 µM (inactive)	31.2 µM (inactive)	12.8 µM (inactive)	23.3 µM (inactive)	24.6 µM (inactive)	24.5 µM (inactive)	25.8 µM (inactive)	34 µM (inactive)
CN(COC(=O)C(C)(C)C)c1nc(N(C)COC(=O)C(C)(C)C)nc(N(C)COC(=O)C(C)(C)C)n1	> 100 µM (inactive)	> 10 µM (inactive)	–	77.8 µM (inactive)	24.8 µM (inactive)	> 100 µM (inactive)	> 100 µM (inactive)	19 µM (inactive)	29.1 µM (inactive)	16.4 µM (inactive)	60 µM (inactive)	–	44.3 µM (inactive)	56.6 µM (inactive)	> 100 µM (inactive)	22.4 µM (inactive)	33.8 µM (inactive)	25.7 µM (inactive)	34.4 µM (inactive)
O=C1/C(=C/c2cccs2)N=C(c2ccccc2)N1C1Nc2cc3c(cc2S1)NC(N1C(=O)/C(=C/c2cccs2)N=C1c1ccccc1)S3 (configuration not stated)	32.8 µM (inactive)	–	> 100 µM (inactive)	38.7 µM (inactive)	12.6 µM (inactive)	32.3 µM (inactive)	24.2 µM (inactive)	18.2 µM (inactive)	3.07 µM (inactive)	30.2 µM (inactive)	6.97 µM (inactive)	17.7 µM (inactive)	13.9 µM (inactive)	51.8 µM (inactive)	69.5 µM (inactive)	24.7 µM (inactive)	23 µM (inactive)	18.6 µM (inactive)	18.1 µM (inactive)
Oc1ccccc1C1C=C(c2ccccc2)NC(N2CCCCC2)=C1c1nc2ccccc2[nH]1 (configuration not stated)	16.6 µM (inactive)	15.8 µM (inactive)	13.7 µM (inactive)	11.8 µM (inactive)	13.7 µM (inactive)	15.9 µM (inactive)	13.4 µM (inactive)	13 µM (inactive)	12.4 µM (inactive)	11.9 µM (inactive)	14.3 µM (inactive)	15.6 µM (inactive)	15.8 µM (inactive)	18.9 µM (inactive)	–	24.2 µM (inactive)	12.1 µM (inactive)	13.5 µM (inactive)	15.1 µM (inactive)
CC1=C2c3c(C)ccc4ccc(C)c(c34)C2(O)C(C)C1=O (configuration not stated)	41.3 µM (inactive)	35.8 µM (inactive)	44.5 µM (inactive)	32.7 µM (inactive)	25 µM (inactive)	84.3 µM (inactive)	35.1 µM (inactive)	62.2 µM (inactive)	> 100 µM (inactive)	89.1 µM (inactive)	60.1 µM (inactive)	52.1 µM (inactive)	15.2 µM (inactive)	29.3 µM (inactive)	> 100 µM (inactive)	> 100 µM (inactive)	68.5 µM (inactive)	54.1 µM (inactive)	21 µM (inactive)
O=C1C=C(Br)c2c(-c3ccccc3)oc3cccc1c23	> 53 µM (inactive)	38.1 µM (inactive)	25.4 µM (inactive)	> 100 µM (inactive)	> 41.5 µM (inactive)	> 93.5 µM (inactive)	29.3 µM (inactive)	54.5 µM (inactive)	–	26.4 µM (inactive)	37.8 µM (inactive)	17.1 µM (inactive)	48 µM (inactive)	6.21 µM (inactive)	> 75.7 µM (inactive)	31.6 µM (inactive)	2.62 µM (inactive)	18.4 µM (inactive)	> 100 µM (inactive)
COC1CC(=O)C2C(=O)N(c3ccccc3)C(=O)C23C(C(=O)c2ccccc2)=C(C)NC13O (configuration not stated)	18 µM (inactive)	16.4 µM (inactive)	< 0.01 µM (active)	10.4 µM (inactive)	–	11 µM (inactive)	22.2 µM (inactive)	15.5 µM (inactive)	–	17.1 µM (inactive)	21.7 µM (inactive)	14.5 µM (inactive)	20.9 µM (inactive)	2.92 µM (inactive)	17.2 µM (inactive)	13.5 µM (inactive)	4.06 µM (inactive)	18.7 µM (inactive)	23.3 µM (inactive)
Cc1ccc([N+](=O)[O-])cc1S(=O)(=O)Nc1ccc(C2=NN(c3ccc([N+](=O)[O-])cc3[N+](=O)[O-])C(c3ccccc3)C2)cc1 (configuration not stated)	18.3 µM (inactive)	–	14.8 µM (inactive)	14.3 µM (inactive)	16.8 µM (inactive)	34.5 µM (inactive)	21.9 µM (inactive)	17.4 µM (inactive)	22.4 µM (inactive)	14.9 µM (inactive)	–	19.3 µM (inactive)	18.4 µM (inactive)	12.1 µM (inactive)	–	17.9 µM (inactive)	12.2 µM (inactive)	16 µM (inactive)	17.2 µM (inactive)
COc1ccc(-c2cc(=O)c3c(OC)c(O)c(OC)cc3o2)cc1	–	30.8 µM (inactive)	20.9 µM (inactive)	–	59.3 µM (inactive)	> 100 µM (inactive)	40.4 µM (inactive)	58.3 µM (inactive)	73.8 µM (inactive)	23.6 µM (inactive)	32.8 µM (inactive)	42.4 µM (inactive)	29.1 µM (inactive)	23.1 µM (inactive)	30 µM (inactive)	49.3 µM (inactive)	42.7 µM (inactive)	47.3 µM (inactive)	55.3 µM (inactive)
Cc1ccc2c(O)cc(-c3ccccc3)nc2n1	0.0304 µM (active)	0.0521 µM (active)	1.44 µM (inactive)	0.0519 µM (active)	0.116 µM (active)	0.181 µM (active)	0.091 µM (active)	0.0643 µM (active)	< 0.0306 µM (active)	0.467 µM (active)	0.0574 µM (active)	< 0.01 µM (active)	0.0367 µM (active)	> 100 µM (inactive)	–	0.274 µM (active)	0.0509 µM (active)	0.0106 µM (active)	0.122 µM (active)
